Laboratory results: patent US20070087021A1, “METHOD OF PROTECTING AGAINST CHRONIC INFECTIONS” (priority 1997, published 2007)

Key:
coccidiosis [1] = experiment: Paired-barn comparison of anticoccidial ionophore (salinomycin) vs vaccine plus salinomycin for protecting poultry against coccidiosis; type: in vivo
Description: (§1) A gel form vaccine was prepared by first adding 200 ml of hot tap water to 5 gm of kappa carrageenan Bengel MB 910 in a container and mixing until the MB 910 had dissolved. To this solution was added 200 ml of a solution containing 500 oocysts per ml of a mixture of Eimeria acervulina, E. maxima and E. tenella and the combined solution was mixed. The solution was then poured into a plastic watering dish and allowed to cool and get at 4° C.
(§2) A paired-barn comparison was conducted between use of a anticoccidial ionophore and the method of the present invention for protecting poultry against coccidiosis. 51,000 birds were divided into two groups. One group was maintained on feed containing 60 mg per kilogram of feed of salinomycin sodium COXISTAC (Pfizer). The second group was administered the vaccine prepared in accordance with Example 1 on Day 1. These birds were maintained on feed with no medication for 10 days. Thereafter, 60 mg per kilogram of salinomycin sodium was utilized in the feed for a further 10 days after which the animals were maintained on non-medicated feed until shipping. A virginiamysin based growth promotant STAFAC (SmithKline Beecham) at a level of 11 mg per kilogram of feed was used as a growth promotant in both groups.

coccidiosis [2] = experiment: Paired-barn comparison repeated: vaccine/monensin treatment vs monensin alone; type: in vivo, poultry; details: cockerels
Description: as §1, §2
The above example was repeated comparing vaccine/monensin treatment with monensin alone and the results from this are shown in Table 2.

[3] = birds, market age 42 days / 52 days

Structure (SMILES) | Avg. Weight (coccidiosis [1]; [3]) [kg] | Feed Conversion Ratio (coccidiosis [1]; [3]) | Livability (%) (coccidiosis [1]; birds, market age 42 days / 52 days, salinomycin sodium 60 mg per kg feed (vaccine group: 10 days no medication, then 10 days salinomycin)) | EEF (European Efficiency Factor) (coccidiosis [1]; related to percent livability, average market weight, feed conversion rate and market age) | EEF (European Efficiency Factor) (coccidiosis [2]) | Feed Conversion Ratio (coccidiosis [2]) | Avg. Weight (coccidiosis [2]; average at market (Monesin group: market age 47 days)) [kg] | Livability (%) (coccidiosis [2]; vaccine group: 2 weeks no medication, then 2 weeks monensin in feed)
CC[C@@H](C(=O)[C@@H](C)[C@@H](O)[C@H](C)[C@@H]1O[C@@H]([C@@H](CC)C(=O)O)CC[C@@H]1C)[C@H]1O[C@]2(C=C[C@@H](O)[C@]3(CC[C@@](C)([C@H]4CC[C@](O)(CC)[C@H](C)O4)O3)O2)[C@H](C)C[C@@H]1C [Salinomycin, salinomycin sodium] | 2.72 | 2.16 | 91.8 | 2.23 |  |  |  | 
CC[C@@]1([C@@H]2O[C@@H]([C@H]3O[C@@](O)(CO)[C@H](C)C[C@@H]3C)C[C@@H]2C)CC[C@H]([C@]2(C)CC[C@]3(C[C@H](O)[C@@H](C)[C@@H]([C@@H](C)[C@@H](OC)[C@H](C)C(=O)O)O3)O2)O1 [Monesin, monensin] |  |  |  |  | 2.23 | 2.19 | 2.44 | 94.1
